Data as given in PubChem BioAssay AID1259407 (Chemical Carcinogenesis Research Information System (CCRIS), 2018).
Activity calls are given as the source filed them. The rule behind the calls is not given here.

Tested on: CCRIS mutagenicity, Ames/micronucleus/aberration tests
Experiment: CCRIS mutagenicity studies

BrCCBr
mutagenic call (End Point: IN VITRO CHROMOSOMAL ABERRATIONS, Test System: CHL CELLS, Metabolic Activation: RAT, LIVER, S-9, SODIUM PHENOBARBITAL AND 5,6-BENZOFLAVONE): active; positive (structural changes)
mutagenic call (End Point: IN VITRO CHROMOSOMAL ABERRATIONS, Test System: CHO CELLS, Metabolic Activation: NONE): active; positive
mutagenic call (End Point: IN VITRO CHROMOSOMAL ABERRATIONS, Test System: CHO CELLS, Metabolic Activation: RAT, LIVER, S-9, AROCLOR 1254): active; positive
mutagenic call (Test System: AMES SALMONELLA TYPHIMURIUM, Strain/Indicator: TA97, Metabolic Activation: NONE, Method: STANDARD PLATE): active; positive
mutagenic call (Test System: AMES SALMONELLA TYPHIMURIUM, Strain/Indicator: TA97, Metabolic Activation: RAT, LIVER, S-9, AROCLOR 1254, Method: STANDARD PLATE): active; positive
mutagenic call (Test System: AMES SALMONELLA TYPHIMURIUM, Strain/Indicator: TA98, Metabolic Activation: NONE, Method: STANDARD PLATE): inactive; negative
mutagenic call (Test System: AMES SALMONELLA TYPHIMURIUM, Strain/Indicator: TA98, Metabolic Activation: RAT, LIVER, S-9, AROCLOR 1254, Method: STANDARD PLATE): active; positive
mutagenic call (Test System: AMES SALMONELLA TYPHIMURIUM, Strain/Indicator: TA100/NG-57, Metabolic Activation: CELL PRETREATMENT WITH GLUTATHIONE, Method: PREINCUBATION): active; positive
mutagenic call (Test System: AMES SALMONELLA TYPHIMURIUM, Strain/Indicator: TA100/NG-57, Metabolic Activation: NONE, Method: PREINCUBATION): inactive; negative
mutagenic call (Test System: AMES SALMONELLA TYPHIMURIUM, Strain/Indicator: TA100, Metabolic Activation: CELL PRETREATMENT WITH GLUTATHIONE, Method: PREINCUBATION): active; positive
mutagenic call (Test System: AMES SALMONELLA TYPHIMURIUM, Strain/Indicator: TA100, Metabolic Activation: NONE): active; positive
mutagenic call (Test System: AMES SALMONELLA TYPHIMURIUM, Strain/Indicator: TA100, Metabolic Activation: NONE, Method: PREINCUBATION): active; positive
mutagenic call (Test System: AMES SALMONELLA TYPHIMURIUM, Strain/Indicator: TA100, Metabolic Activation: NONE, Method: SUSPENSION/PLATE): active; positive
mutagenic call (Test System: AMES SALMONELLA TYPHIMURIUM, Strain/Indicator: TA100, Metabolic Activation: RAT, KIDNEY, S-9, AROCLOR 1254): active; positive
mutagenic call (Test System: AMES SALMONELLA TYPHIMURIUM, Strain/Indicator: TA100, Metabolic Activation: RAT, LIVER, HEPATOCYTES, Method: SUSPENSION/PLATE): active; positive
mutagenic call (Test System: AMES SALMONELLA TYPHIMURIUM, Strain/Indicator: TA100, Metabolic Activation: RAT, LIVER, S-9, AROCLOR 1254): active; positive
mutagenic call (Test System: AMES SALMONELLA TYPHIMURIUM, Strain/Indicator: TA100, Metabolic Activation: RAT, LIVER, S-9, AROCLOR 1254, Method: STANDARD PLATE): active; positive
mutagenic call (Test System: AMES SALMONELLA TYPHIMURIUM, Strain/Indicator: TA100, Metabolic Activation: RAT, LIVER, S-9, AROCLOR 1254 AND RAT, KIDNEY, S-9, AROCLOR 1254): active; positive
mutagenic call (Test System: AMES SALMONELLA TYPHIMURIUM, Strain/Indicator: TA100, Metabolic Activation: S-9 MIX, Method: STANDARD PLATE): active; positive
mutagenic call (Test System: AMES SALMONELLA TYPHIMURIUM, Strain/Indicator: TA102, Metabolic Activation: NONE, Method: STANDARD PLATE): inactive; negative
mutagenic call (Test System: AMES SALMONELLA TYPHIMURIUM, Strain/Indicator: TA104, Metabolic Activation: NONE, Method: STANDARD PLATE): inactive; negative
mutagenic call (Test System: AMES SALMONELLA TYPHIMURIUM, Strain/Indicator: TA104, Metabolic Activation: RAT, LIVER, S-9, AROCLOR 1254, Method: STANDARD PLATE): inactive; negative
mutagenic call (Test System: AMES SALMONELLA TYPHIMURIUM, Strain/Indicator: TA1530, Metabolic Activation: NONE, Method: SPOT): active; positive
mutagenic call (Test System: AMES SALMONELLA TYPHIMURIUM, Strain/Indicator: TA1535/NG-19, Metabolic Activation: CELL PRETREATMENT WITH GLUTATHIONE, Method: PREINCUBATION): active; positive
mutagenic call (Test System: AMES SALMONELLA TYPHIMURIUM, Strain/Indicator: TA1535/NG-19, Metabolic Activation: NONE, Method: PREINCUBATION): active; positive
mutagenic call (Test System: AMES SALMONELLA TYPHIMURIUM, Strain/Indicator: TA1535, Metabolic Activation: CELL PRETREATMENT WITH GLUTATHIONE, Method: PREINCUBATION): active; positive
mutagenic call (Test System: AMES SALMONELLA TYPHIMURIUM, Strain/Indicator: TA1535, Metabolic Activation: NONE, Method: PREINCUBATION): active; positive
mutagenic call (Test System: AMES SALMONELLA TYPHIMURIUM, Strain/Indicator: TA1535, Metabolic Activation: NONE, Method: STANDARD PLATE): active; positive
mutagenic call (Test System: AMES SALMONELLA TYPHIMURIUM, Strain/Indicator: TA1535, Metabolic Activation: RAT, KIDNEY, S-9, AROCLOR 1254): active; positive
mutagenic call (Test System: AMES SALMONELLA TYPHIMURIUM, Strain/Indicator: TA1535, Metabolic Activation: RAT, LIVER, S-9, AROCLOR 1254, Method: PREINCUBATION): active; positive
mutagenic call (Test System: AMES SALMONELLA TYPHIMURIUM, Strain/Indicator: TA1535, Metabolic Activation: RAT, LIVER, S-9, AROCLOR 1254, Method: STANDARD PLATE): active; positive
mutagenic call (Test System: AMES SALMONELLA TYPHIMURIUM, Strain/Indicator: TA1535, Metabolic Activation: RAT, LIVER, S-9, AROCLOR 1254 AND RAT, KIDNEY, S-9, AROCLOR 1254): active; positive
mutagenic call (Test System: AMES SALMONELLA TYPHIMURIUM, Strain/Indicator: TA1535, Metabolic Activation: RAT, LIVER, S-9, PHENOBARBITAL, Method: STANDARD PLATE): active; positive
mutagenic call (Test System: AMES SALMONELLA TYPHIMURIUM, Strain/Indicator: TA2638, Metabolic Activation: NONE, Method: STANDARD PLATE): inactive; negative
mutagenic call (Test System: AMES SALMONELLA TYPHIMURIUM, Strain/Indicator: YG7100, Metabolic Activation: NONE, Method: PREINCUBATION): active; positive
mutagenic call (Test System: AMES SALMONELLA TYPHIMURIUM, Strain/Indicator: YG7104, Metabolic Activation: NONE, Method: PREINCUBATION): active; positive
mutagenic call (Test System: AMES SALMONELLA TYPHIMURIUM, Strain/Indicator: YG7108, Metabolic Activation: NONE, Method: PREINCUBATION): active; positive
mutagenic call (Test System: AMES SALMONELLA TYPHIMURIUM, Strain/Indicator: YG7112, Metabolic Activation: NONE, Method: PREINCUBATION): active; positive
mutagenic call (Test System: AMES SALMONELLA TYPHIMURIUM, Strain/Indicator: YG7113, Metabolic Activation: NONE, Method: PREINCUBATION): active; positive
mutagenic call (Test System: AMES SALMONELLA TYPHIMURIUM, Strain/Indicator: YG7119, Metabolic Activation: NONE, Method: PREINCUBATION): active; positive
mutagenic call (Test System: CHINESE HAMSTER OVARY, Strain/Indicator: CHO-K1 (HPRT)/6-THIOGUANINE, Metabolic Activation: NONE, Method: SUSPENSION/PLATE): active; positive
mutagenic call (Test System: CHINESE HAMSTER OVARY, Strain/Indicator: CHO-K1-BH4 (HGPRT)/6-THIOGUANINE, Metabolic Activation: NONE): inactive; negative
mutagenic call (Test System: E. COLI, Strain/Indicator: K12(AB1157), Metabolic Activation: NONE, Method: SUSPENSION/PLATE): inactive; negative
mutagenic call (Test System: E. COLI, Strain/Indicator: K12(AB1157), Metabolic Activation: RAT, LIVER, S-9, PHENOBARBITAL AND BETA-NAPHTHOFLAVONE, Method: SUSPENSION/PLATE): inactive; negative
mutagenic call (Test System: E. COLI, Strain/Indicator: K12(AB1886) UVRA, Metabolic Activation: NONE, Method: SUSPENSION/PLATE): active; positive
mutagenic call (Test System: E. COLI, Strain/Indicator: K12(AB1886) UVRA, Metabolic Activation: RAT, LIVER, S-9, PHENOBARBITAL AND BETA-NAPHTHOFLAVONE, Method: SUSPENSION/PLATE): active; positive
mutagenic call (Test System: E. COLI, Strain/Indicator: K12(AB2480) RECA/UVRA, Metabolic Activation: NONE, Method: SUSPENSION/PLATE): inactive; negative
mutagenic call (Test System: E. COLI, Strain/Indicator: K12(AB2480) RECA/UVRA, Metabolic Activation: RAT, LIVER, S-9, PHENOBARBITAL AND BETA-NAPHTHOFLAVONE, Method: SUSPENSION/PLATE): inactive; negative
mutagenic call (Test System: E. COLI, Strain/Indicator: WP2 UVRA (PKM101), Metabolic Activation: NONE, Method: STANDARD PLATE): active; positive
mutagenic call (Test System: MOUSE LYMPHOMA, Strain/Indicator: L5178Y (TK+/TK-), Metabolic Activation: NONE, Method: SUSPENSION/PLATE): active; positive
mutagenic call (Test System: MOUSE LYMPHOMA, Strain/Indicator: L5178Y (TK+/TK-), Metabolic Activation: RAT, LIVER, S-9, AROCLOR 1254, Method: SUSPENSION/PLATE): active; positive
